Values quoted from earlier work in US20250178999A1, “ONE STEP SYNTHESIS OF 1-TETRALONE COMPOUNDS AND USES THEREOF IN THE PREPARATION OF (+)-TETRALONE ABSCISIC ACID (ABA)” (University of Saskatchewan, priority 2022, published 2025).
Read-outs that look alike come from different tables or passages of the source.

Tests used:
corn cell = conditions: Nyangulu et al 2006
ABA receptors [1] = conditions: Arabidopsis receptors; Vaidya et al 2019
Arabidopsis = conditions: for IC50: Vaidya et al 2019, read-out: IC50 in germination of Arabidopsis
ABA receptors [2] = conditions: wheat receptors; Vaidya et al 2019
[3] = test system: corn cell suspension system; conditions: Nyangulu et al 2006
[4] = Nyangulu et al 2006
lettuce = conditions: Han et al 2015
rice seedling = conditions: Han et al 2015

relative potency of 7 and (+)-5 by receptor subgroup (ABA receptors [1]) | IC50 (Arabidopsis) | relative potency of 7 and (+)-5 by receptor subgroup (ABA receptors [2]) | SMILES | also measured
more potent in subgroup II | 0.194 µM | more potent in subgroup II | CC(=C/C(=O)O)/C=C/[C@@]1(O)c2ccccc2C(=O)CC1(C)C [(+)-5, (2Z,4E)-5-((S)-1-hydroxy-2,2-dimethyl-4-oxo-1,2,3,4-tetrahydronaphthalen-1-yl)-3-methylpenta-2,4-dienoic acid] | activity in corn cell growth inhibition assay compared to ABA (corn cell): higher activity than ABA; activity in seed germination inhibition assay in Arabidopsis compared to ABA (Arabidopsis; Nyangulu et al 2006): higher activity than ABA
– | – | – | CC(=C/C(=O)O)/C=C/[C@@]1(O)c2ccccc2C(=O)C[C@]1(C)CO [Compound 8] | metabolic fate in corn cell suspension system [3]: not converted to a phaseic acid-like compound; biological activity [4]: retain biological activity
more the active in subgroup III | 0.062 µM | more the active in subgroup III | N#Cc1c(C2CC2)cc(CC(=O)NC2(C(=O)O)CCCCC2)cc1C1CC1 [Compound 7, opabactin, reference compound] | –
– | – | – | CC(=C/C(=O)O)/C=C/C1(O)c2ccccc2C(=O)CC1(C)C (racemic) [(±)-5] | activity in seed germination assay in lettuce compared to racemic ABA (lettuce): higher activity than racemic ABA; activity in rice seedling growth inhibition assay compared to racemic ABA (rice seedling): higher activity than racemic ABA; activity in seed germination assay in arabidopsis compared to racemic ABA (Arabidopsis; Han et al 2015): higher activity than racemic ABA

SMILES | relative potency of 7 and (+)-5 by receptor subgroup (ABA receptors [1]) | IC50 (Arabidopsis) | relative potency of 7 and (+)-5 by receptor subgroup (ABA receptors [2]) | also measured
CC1=CC(=O)CC(C)(C)[C@@]1(O)/C=C/C(C)=C\C(=O)O [(+)-1, (2Z,4E)-5-[(1S)-1-hydroxy-2,6,6-trimethyl-4-oxocyclohex-2-en-1-yl]-3-methylpenta-2,4-dienoic acid, reference compound] | – | 0.601 µM | – | –
